Assays:
Experiment in all cases: CA Inhibition Assay
Settings in all cases: pH 7.5; 25 °C
Carbonic anhydrase 14 = Carbonic anhydrase 14 (Homo sapiens, UniProt Q9ULX7)
Protocol: (§1) An Applied Photophysics stopped-flow instrument has been used for assaying the CA catalysed CO2 hydration activity. […] The CO2 concentrations ranged from 1.7 to 17 mM for the determination of the kinetic parameters and inhibition constants. […] The uncatalyzed rates were determined in the same manner and subtracted from the total observed rates. Stock solutions of inhibitor (0.1 mM) were prepared in distilled deionized water and dilutions up to 0.01nM were done thereafter with distilled-deionized water.

Carbonic anhydrase 13 = Carbonic anhydrase 13 (Homo sapiens, UniProt Q8N1Q1)
Protocol: as §1

Carbonic anhydrase 12 = Carbonic anhydrase 12 (Homo sapiens, UniProt O43570)
Protocol: as §1

Carbonic anhydrase 1 = Carbonic anhydrase 1 (Homo sapiens, UniProt P00915)
Protocol: as §1

Carbonic anhydrase 4 = Carbonic anhydrase 4 (Homo sapiens, UniProt P22748)
Protocol: as §1

Carbonic anhydrase 2 = Carbonic anhydrase 2 (Homo sapiens, UniProt P00918)
Protocol: as §1

[1] = biological target: Carbonic anhydrase 5A, mitochondrial (Homo sapiens, UniProt P35218)
Protocol: as §1

Carbonic anhydrase 3 = Carbonic anhydrase 3 (Homo sapiens, UniProt P07451)
Protocol: as §1

[2] = biological target: Carbonic anhydrase 5B, mitochondrial (Homo sapiens, UniProt Q9Y2D0)
Protocol: as §1

Carbonic anhydrase 6 = Carbonic anhydrase 6 (Homo sapiens, UniProt P23280)
Chain of Carbonic anhydrase 6 (P23280 whole entry): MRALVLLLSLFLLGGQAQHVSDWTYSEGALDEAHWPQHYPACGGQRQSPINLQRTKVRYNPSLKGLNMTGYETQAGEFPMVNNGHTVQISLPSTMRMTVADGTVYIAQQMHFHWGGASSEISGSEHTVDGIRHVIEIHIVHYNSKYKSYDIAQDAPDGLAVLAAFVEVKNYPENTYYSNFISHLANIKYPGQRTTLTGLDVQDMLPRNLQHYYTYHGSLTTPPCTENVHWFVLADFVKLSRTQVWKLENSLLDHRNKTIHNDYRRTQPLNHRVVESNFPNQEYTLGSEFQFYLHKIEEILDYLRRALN
Protocol: as §1

Chain of Carbonic anhydrase 14 (Q9ULX7 whole entry): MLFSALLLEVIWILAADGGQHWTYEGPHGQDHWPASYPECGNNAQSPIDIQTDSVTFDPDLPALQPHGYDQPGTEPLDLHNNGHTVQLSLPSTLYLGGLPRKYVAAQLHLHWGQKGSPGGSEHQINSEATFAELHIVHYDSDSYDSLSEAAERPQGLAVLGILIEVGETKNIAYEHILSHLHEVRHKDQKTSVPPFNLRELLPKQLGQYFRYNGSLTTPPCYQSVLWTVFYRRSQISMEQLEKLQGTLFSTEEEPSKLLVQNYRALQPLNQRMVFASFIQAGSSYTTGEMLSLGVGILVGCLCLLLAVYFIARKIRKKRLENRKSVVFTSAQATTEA
Chain of Carbonic anhydrase 5B, mitochondrial (Q9Y2D0 whole entry): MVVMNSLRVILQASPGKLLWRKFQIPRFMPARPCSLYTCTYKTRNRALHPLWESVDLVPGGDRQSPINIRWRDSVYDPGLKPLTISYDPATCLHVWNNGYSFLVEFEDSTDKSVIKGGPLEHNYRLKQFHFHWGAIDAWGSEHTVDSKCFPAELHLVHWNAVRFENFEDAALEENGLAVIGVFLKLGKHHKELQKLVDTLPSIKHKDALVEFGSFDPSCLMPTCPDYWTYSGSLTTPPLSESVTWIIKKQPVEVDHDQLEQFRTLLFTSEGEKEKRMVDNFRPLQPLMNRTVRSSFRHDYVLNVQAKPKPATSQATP
Chain of Carbonic anhydrase 12 (O43570 whole entry): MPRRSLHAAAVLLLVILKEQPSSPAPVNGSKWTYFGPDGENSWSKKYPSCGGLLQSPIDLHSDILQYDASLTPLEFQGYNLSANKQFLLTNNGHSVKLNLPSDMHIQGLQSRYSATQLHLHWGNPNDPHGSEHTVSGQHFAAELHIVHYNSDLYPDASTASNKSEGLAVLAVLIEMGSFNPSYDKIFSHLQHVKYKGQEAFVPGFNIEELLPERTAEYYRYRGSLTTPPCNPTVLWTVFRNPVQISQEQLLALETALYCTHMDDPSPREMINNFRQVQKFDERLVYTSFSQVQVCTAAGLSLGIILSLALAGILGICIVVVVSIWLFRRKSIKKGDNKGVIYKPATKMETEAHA
Chain of Carbonic anhydrase 4 (P22748 whole entry): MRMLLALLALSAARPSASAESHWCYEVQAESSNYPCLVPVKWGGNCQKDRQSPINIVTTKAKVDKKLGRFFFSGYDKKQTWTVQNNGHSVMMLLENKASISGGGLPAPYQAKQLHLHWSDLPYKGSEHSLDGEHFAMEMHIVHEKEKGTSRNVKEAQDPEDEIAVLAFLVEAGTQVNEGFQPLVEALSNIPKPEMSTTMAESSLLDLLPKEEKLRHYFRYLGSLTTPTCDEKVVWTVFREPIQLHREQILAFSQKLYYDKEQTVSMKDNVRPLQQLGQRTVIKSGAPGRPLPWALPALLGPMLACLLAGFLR
Chain of Carbonic anhydrase 13 (Q8N1Q1 whole entry): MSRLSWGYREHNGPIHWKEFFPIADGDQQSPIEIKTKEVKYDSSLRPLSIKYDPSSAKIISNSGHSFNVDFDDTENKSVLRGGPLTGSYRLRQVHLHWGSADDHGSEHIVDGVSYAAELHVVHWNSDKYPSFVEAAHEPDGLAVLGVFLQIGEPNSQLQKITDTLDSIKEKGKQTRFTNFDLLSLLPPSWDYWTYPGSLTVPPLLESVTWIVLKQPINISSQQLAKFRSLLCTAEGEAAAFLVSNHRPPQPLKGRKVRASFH
Chain of Carbonic anhydrase 3 (P07451 whole entry): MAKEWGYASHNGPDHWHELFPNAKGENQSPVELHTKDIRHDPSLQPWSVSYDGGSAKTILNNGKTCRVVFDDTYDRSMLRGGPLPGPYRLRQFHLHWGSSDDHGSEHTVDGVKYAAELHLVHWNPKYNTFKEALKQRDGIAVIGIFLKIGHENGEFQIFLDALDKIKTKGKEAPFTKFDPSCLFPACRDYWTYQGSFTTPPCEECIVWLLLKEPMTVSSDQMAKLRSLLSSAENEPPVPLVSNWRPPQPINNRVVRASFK
Chain of Carbonic anhydrase 5A, mitochondrial (P35218 whole entry): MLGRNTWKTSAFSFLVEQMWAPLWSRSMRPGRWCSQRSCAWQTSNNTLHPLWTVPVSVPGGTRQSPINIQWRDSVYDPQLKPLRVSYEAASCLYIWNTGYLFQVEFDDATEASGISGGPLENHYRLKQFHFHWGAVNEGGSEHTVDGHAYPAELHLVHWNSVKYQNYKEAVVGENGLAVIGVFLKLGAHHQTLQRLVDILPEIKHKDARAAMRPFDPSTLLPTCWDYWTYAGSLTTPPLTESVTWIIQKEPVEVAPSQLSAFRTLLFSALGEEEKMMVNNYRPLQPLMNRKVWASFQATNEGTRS
Chain of Carbonic anhydrase 1 (P00915 whole entry): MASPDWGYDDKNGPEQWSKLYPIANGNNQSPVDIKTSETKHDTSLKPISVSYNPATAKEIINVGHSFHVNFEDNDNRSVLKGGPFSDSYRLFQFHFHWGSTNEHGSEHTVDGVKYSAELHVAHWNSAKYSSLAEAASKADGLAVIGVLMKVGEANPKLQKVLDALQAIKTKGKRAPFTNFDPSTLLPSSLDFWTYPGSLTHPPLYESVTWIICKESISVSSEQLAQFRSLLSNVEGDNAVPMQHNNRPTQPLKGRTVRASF

NS(=O)(=O)c1cc(Cl)c(Cl)c(S(N)(=O)=O)c1 [Dichlorophenamide, DCP]
Ki (Carbonic anhydrase 14): 340 nM

CC1(C)[C@@H](O)C[C@H]2[C@](C)(O)[C@@H]3CCC4[C@@H](O)C3(C[C@@H](O)[C@@]21O)C[C@@]4(C)O (stereo partly specified) [Grayanotoxin III (GTX3)]
Ki (Carbonic anhydrase 13): 690 nM
Ki (Carbonic anhydrase 12): 2150 nM
Ki (Carbonic anhydrase 1): 8010 nM
Ki (Carbonic anhydrase 4): 510 nM
Ki (Carbonic anhydrase 2): 6130 nM
Ki [1]: 1140 nM
Ki (Carbonic anhydrase 14): 1470 nM
Ki (Carbonic anhydrase 3): 760 nM
Ki [2]: 740 nM
Ki (Carbonic anhydrase 6): 860 nM
